The results in this text go back to patent publication US9708293B2, “N-(pyridin-2-yl)pyrimidin-4-amine derivatives containing a sulfone group” (BAYER PHARMA AKTIENGESELLSCHAFT, priority 2012, dated 2017).

One assay has as its target T1, CDK9/CycT1 (Homo sapiens, UniProt P50750).
T1 construct: Recombinant full-length His-tagged human CDK9 and CycT1; His; purchased Invitrogen PV4131; host or cells: insect cells
The experiment in a line: CDK9/CycT1 kinase assay (Method 1a). Type of assay: biochemical. The note with it: 10 μM ATP. The text has this:
1a. CDK9/CycT1 Kinase Assay:
CDK9/CycT1—inhibitory activity of compounds of the present invention was quantified employing the CDK9/CycT1 TR-FRET assay as described in the following paragraphs:
Recombinant full-length His-tagged human CDK9 and CycT1, expressed in insect cells and purified by Ni-NTA affinity chromatography, were purchased from Invitrogen (Cat. No PV4131). As substrate for the kinase reaction biotinylated peptide biotin-Ttds-YISPLKSPYKISEG (C-terminus in amid form) was used which can be purchased e.g. form the company JERINI Peptide Technologies (Berlin, Germany). For the assay 50 nl of a 100 fold concentrated solution of the test compound in DMSO was pipetted into a black low volume 384 well microtiter plate (Greiner Bio-One, Frickenhausen, Germany), 2 μl of a solution of CDK9/CycT1 in aqueous assay buffer [50 mM Tris/HCl pH 8.0, 10 mM MgCl2, 1.0 mM dithiothreitol, 0.1 mM sodium ortho-vanadate, 0.01% (v/v) Nonidet-P40 (Sigma)] were added and the mixture was incubated for 15 min at 22° C. to allow pre-binding of the test compounds to the enzyme before the start of the kinase reaction. Then the kinase reaction was started by the addition of 3 μl of a solution of adenosine-tri-phosphate (ATP, 16.7 μM=>final conc. in the 5 μl assay volume is 10 μM) and substrate (1.67 μM=>final conc. in the 5 μl assay volume is 1 μM) in assay buffer and the resulting mixture was incubated for a reaction time of 25 min at 22° C. […]
The resulting mixture was incubated 1 h at 22° C. to allow the formation of complex between the phosphorylated biotinylated peptide and the detection reagents. Subsequently the amount of phosphorylated substrate was evaluated by measurement of the resonance energy transfer from the Eu-chelate to the streptavidine-XL. Therefore, the fluorescence emissions at 620 nm and 665 nm after excitation at 350 nm was measured in a HTRF reader, e.g. a Rubystar (BMG Labtechnologies, Offenburg, Germany) or a Viewlux (Perkin-Elmer). […]

The target of the next assay is T2, CDK2/CycE (Homo sapiens, UniProt P24941).
T2 construct: GST; purchased ProQinase GmbH (Freiburg, Germany); host or cells: insect cells (Sf9)
Briefly: CDK2/CycE high ATP kinase assay (Method 2b). Type of assay: biochemical. The note with it: 2 mM ATP, read-out: high ATP CDK2: CDK2/CycE1 kinase assay IC50. The protocol:
2b. CDK2/CycE High ATP Kinase Assay
CDK2/CycE-inhibitory activity of compounds of the present invention at 2 mM adenosine-tri-phosphate (ATP) was quantified employing the CDK2/CycE TR-FRET (TR-FRET=Time Resolved Fluorescence Energy Transfer) assay as described in the following paragraphs.
Recombinant fusion proteins of GST and human CDK2 and of GST and human CycE, expressed in insect cells (Sf9) and purified by Glutathion-Sepharose affinity chromatography, were purchase from ProQinase GmbH (Freiburg, Germany). As substrate for the kinase reaction biotinylated peptide biotin-Ttds-YISPLKSPYKISEG (C-terminus in amid form) was used which can be purchased e.g. form the company JERINI peptide technologies (Berlin, Germany).
For the assay 50 nl of a 100 fold concentrated solution of the test compound in DMSO was pipetted into a black low volume 384 well microtiter plate (Greiner Bio-One, Frickenhausen, Germany), 2 μl of a solution of CDK2/CycE in aqueous assay buffer [50 mM Tris/HCl pH 8.0, 10 mM MgCl2, 1.0 mM dithiothreitol, 0.1 mM sodium ortho-vanadate, 0.01% (v/v) Nonidet-P40 (Sigma)] were added and the mixture was incubated for 15 min at 22° C. to allow pre-binding of the test compounds to the enzyme before the start of the kinase reaction. Then the kinase reaction was started by the addition of 3 μl of a solution ATP (3.33 mM=>final conc. in the 5 μl assay volume is 2 mM) and substrate (1.25 μM=>final conc. in the 5 μl assay volume is 0.75 μM) in assay buffer and the resulting mixture was incubated for a reaction time of […] at 22° C. The concentration of CDK2/CycE was adjusted depending of the activity of the enzyme lot and was chosen appropriate to have the assay in the linear range, typical concentrations were in the range of 15 ng/ml. […]
The resulting mixture was incubated 1 h at 22° C. to allow the formation of complex between the phosphorylated biotinylated peptide and the detection reagents. Subsequently the amount of phosphorylated substrate was evaluated by measurement of the resonance energy transfer from the Eu-chelate to the streptavidine-XL. Therefore, the fluorescence emissions at 620 nm and 665 nm after excitation at 350 nm wer measured in a TR-FRET reader, e.g. a Rubystar (BMG Labtechnologies, Offenburg, Germany) or a Viewlux (Perkin-Elmer). […]

T1 sequence (P50750 whole entry): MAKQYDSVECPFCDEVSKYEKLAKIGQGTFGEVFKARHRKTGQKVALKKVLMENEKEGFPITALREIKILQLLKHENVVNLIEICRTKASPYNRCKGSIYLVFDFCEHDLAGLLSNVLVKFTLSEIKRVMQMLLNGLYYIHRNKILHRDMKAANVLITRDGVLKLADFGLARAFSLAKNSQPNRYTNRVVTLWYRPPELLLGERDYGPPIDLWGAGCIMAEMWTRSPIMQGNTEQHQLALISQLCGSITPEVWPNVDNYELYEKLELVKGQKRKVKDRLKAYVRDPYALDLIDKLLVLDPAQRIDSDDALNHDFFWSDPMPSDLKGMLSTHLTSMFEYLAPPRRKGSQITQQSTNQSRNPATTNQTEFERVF
T1 sequence (O60563 whole entry partner): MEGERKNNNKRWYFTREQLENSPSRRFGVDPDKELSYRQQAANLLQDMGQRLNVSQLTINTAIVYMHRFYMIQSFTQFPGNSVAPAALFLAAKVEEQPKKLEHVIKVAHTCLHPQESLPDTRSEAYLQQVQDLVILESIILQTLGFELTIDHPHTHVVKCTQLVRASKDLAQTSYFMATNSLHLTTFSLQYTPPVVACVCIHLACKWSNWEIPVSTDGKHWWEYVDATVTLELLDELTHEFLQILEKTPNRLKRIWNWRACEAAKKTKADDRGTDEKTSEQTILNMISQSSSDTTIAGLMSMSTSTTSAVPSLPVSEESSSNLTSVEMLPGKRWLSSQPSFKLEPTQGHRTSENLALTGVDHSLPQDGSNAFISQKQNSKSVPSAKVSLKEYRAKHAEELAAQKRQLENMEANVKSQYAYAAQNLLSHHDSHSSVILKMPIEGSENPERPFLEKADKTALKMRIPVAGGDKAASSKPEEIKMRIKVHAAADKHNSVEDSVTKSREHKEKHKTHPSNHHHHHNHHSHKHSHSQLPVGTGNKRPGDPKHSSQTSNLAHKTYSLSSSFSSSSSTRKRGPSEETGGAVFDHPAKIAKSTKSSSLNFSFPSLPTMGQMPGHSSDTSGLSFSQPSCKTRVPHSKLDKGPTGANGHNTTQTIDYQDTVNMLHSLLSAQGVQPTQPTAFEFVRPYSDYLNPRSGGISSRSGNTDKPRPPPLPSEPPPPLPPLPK

With `COc1cc(F)ccc1-c1cc(Nc2cc(CS(C)(=O)=O)ccn2)ncn1` [Example 1, 6-(4-Fluoro-2-methoxyphenyl)-N-{4-[(methylsulfonyl)methyl]pyridin-2-yl}pyrimidin-4-amine], the IC50 is 3 nM against CDK9/CycT1 and no less than 20000 nM at CDK2/CycE.
As to `COc1cc(F)ccc1-c1cc(Nc2cc(CS(C)(=O)=O)cc(C)n2)ncn1` [Example 2, 6-(4-Fluoro-2-methoxyphenyl)-N-{6-methyl-4-[(methylsulfonyl)methyl]pyridin-2-yl}pyrimidin-4-amine], the IC50 on CDK2/CycE worked out at 2250 nM.
Take `COc1cc(F)ccc1-c1cc(Nc2cc(CS(C)(=O)=O)cc(C(F)(F)F)n2)ncn1` [Example 3, 6-(4-Fluoro-2-methoxyphenyl)-N-{4-[(methylsulfonyl)methyl]-6-(trifluoromethyl)pyridin-2-yl}pyrimidin-4-amine]: the IC50 against CDK9/CycT1 was 4 nM; on CDK2/CycE, 371 nM.
With `COc1cc(F)ccc1-c1cc(Nc2cc(CS(C)(=O)=O)cc(F)n2)ncn1` [Example 4, 6-(4-Fluoro-2-methoxyphenyl)-N-{6-fluoro-4-[(methylsulfonyl)methyl]pyridin-2-yl}pyrimidin-4-amine], the values for the IC50 at CDK9/CycT1 and on CDK2/CycE were 3 nM and 1870 nM, respectively.
